Measured values reported in patent publication US20130102752A1, “BENZINDOCYANINE COMPOUND FOR LABELING SUBSTANCE, INTERMEDIATE THEREOF, AND METHOD FOR PREPARING THE SAME” (DKC CORPORATION, priority 2010, published 2013).

Experiments:
[1] = Emission wavelength at maximum emission (Perkin Elmer LS-55); type: physicochemical
Experimental: (§1) First, the experimental apparatuses, analytical instruments and reagents used in the examples and experiments are described. Bruker's Avance 300 and 400 were used for FT-NMR spectroscopy, and the Voyager MALDI-TOF DE mass spectrometer was used for MALDI-TOF M/S. Absorption wavelength of the synthesized dye and the absorbance at maximum absorption wavelength were measured using Hewlett-Packard's HP 8452 diode array spectrophotometer. Emission wavelength and light emission at maximum emission wavelength were measured using Perkin Elmer's LS-55.

[2] = Absorption wavelength of the synthesized dye (HP 8452 diode array spectrophotometer); type: physicochemical
Experimental: as §1

[3] = system: marker proteins (Amersham LMW calibration kit: phosphorylase b, albumin, ovalbumin, carbonic anhydrase, trypsin inhibitor, α-lactalbumin); assay: Staining of proteins, separated by gel electrophoresis, fluorescence image; details: 0.1M phosphate buffer pH 9.0, room temperature, 1 hour; electrophoresis 125 V, 2 hours
Experimental: Gel electrophoresis was carried out using Bio-Rad's PowerPac Basic Power Supply (Catalog No. 164-5050) coupled to the Amersham Biosciences's SE260 mini-vertical gel electrophoresis unit. Lonza's PAGEr Gold Precast Gels (polyacrylamide gels for protein electrophoresis, 10-20% Tris-glycine gels, Catalog No. 59506) were used as gels. Running and loading buffers for SDS-PAGE were prepared as follows prior to use.
Size markers commercially available from GE Healthcare and Takara were used as proteins. Perkin Elmer's Geliance 600 was used for observation of labeled biomolecules and measurement of fluorescence intensity. Geliance UV Epi (Catalog No. L7110026) and Geliance Blue Epi (Catalog No. L7110027) were used as light sources. Measurement was carried out using UV filter, Geliance short-pass filter (500-600 nm), Geliance long-pass filter (580-660 nm) and Geliance blue light filter (550-600 nm) while changing the filters in accordance with fluorescence wavelengths.
Each vial of one pack of Amersham™ LMW calibration kit (17-0446-01) for SDS electrophoresis commercially available from GE Healthcare contains 576 μg of six marker proteins, which are phosphorylase b (97 kD, 67 μg), albumin (66 kD, 83 μg), ovalbumin (45 kD, 147 μg), carbonic anhydrase (30 kD, 83 μg), trypsin inhibitor (20.1 kD, 80 μg) and α-lactalbumin (14.4 kD, 116 μg). […]

Row | SMILES | λfl (methanol) [1] [nm] | λabs (methanol) [2] [nm] | λfl (water) [1] [nm] | visibility of stained proteins after gel electrophoresis (FIG. 1) [3] | λabs (water) [2] [nm]
1 | C=CS(=O)(=O)CCNC(=O)CCCCCN1/C(=C/C=C/C=C/C2=[N+](CC)c3ccc4ccccc4c3C2(C)C)C(C)(C)c2c1ccc1ccccc21 [Compound 1-4] | 710 | 680 |  |  | 
2 | C=CS(=O)(=O)CCNC(=O)CCCCCN1/C(=C/C=C/C=C/C2=[N+](CC)c3ccc4c(S(=O)(=O)[O-])cc(S(=O)(=O)O)cc4c3C2(C)C)C(C)(C)c2c1ccc1c(S(=O)(=O)O)cc(S(=O)(=O)O)cc21 [Compound 1-1] |  |  | 695 | discernible with naked eyes | 675
3 | CC[N+]1=C(/C=C/C=C2/N(CCCCCC(=O)O)c3ccc4c(S(=O)(=O)O)cc(S(=O)(=O)O)cc4c3C2(C)C)C(C)(C)c2c1ccc1c(S(=O)(=O)[O-])cc(S(=O)(=O)O)cc21 |  |  | 594 |  | 579
4 | CC[N+]1=C(/C=C/C=C/C=C2/N(CCCCCCCC(=O)O)c3ccc4c(S(=O)(=O)O)cc(S(=O)(=O)O)cc4c3C2(C)C)C(C)(C)c2c1ccc1c(S(=O)(=O)O)cc(S(=O)(=O)[O-])cc21 [Compound 10-5] |  |  | 704 |  | 675
5 | C=CS(=O)(=O)CCNC(=O)CCCCCN1/C(=C/C=C/C=C/C=C/C2=[N+](CC)c3ccc4c(S(=O)(=O)[O-])cc(S(=O)(=O)O)cc4c3C2(C)C)C(C)(C)c2c1ccc1c(S(=O)(=O)O)cc(S(=O)(=O)O)cc21 [Compound 1-2] |  |  | 803 | discernible with naked eyes | 777
6 | CC[N+]1=C(/C=C/C=C/C=C2/N(CCCCCC(=O)O)c3ccc4ccccc4c3C2(C)C)C(C)(C)c2c1ccc1ccccc21 [Compound 10-4] | 713 | 697 |  |  | 
7 | C=CS(=O)(=O)CCNC(=O)CCCCCN1/C(=C/C=C/C2=[N+](CC)c3ccc4c(S(=O)(=O)[O-])cc(S(=O)(=O)O)cc4c3C2(C)C)C(C)(C)c2c1ccc1c(S(=O)(=O)O)cc(S(=O)(=O)O)cc21 [Compound 1-3] |  |  | 594 |  | 579
8 | CC[N+]1=C(/C=C/C=C/C=C2/N(CCCCCC(=O)O)c3ccc4c(S(=O)(=O)O)cc(S(=O)(=O)O)cc4c3C2(C)C)C(C)(C)c2c1ccc1c(S(=O)(=O)[O-])cc(S(=O)(=O)O)cc21 [Compound 10-1] |  |  | 695 |  | 675
9 | C=CS(=O)(=O)CCNC(=O)CCCCCCCN1/C(=C/C=C/C=C/C2=[N+](CC)c3ccc4c(S(=O)(=O)O)cc(S(=O)(=O)[O-])cc4c3C2(C)C)C(C)(C)c2c1ccc1c(S(=O)(=O)O)cc(S(=O)(=O)O)cc21 [Compound 1-5] |  |  | 704 |  | 675
10 | CC[N+]1=C(/C=C/C=C/C=C/C=C2/N(CCCCCC(=O)O)c3ccc4c(S(=O)(=O)O)cc(S(=O)(=O)O)cc4c3C2(C)C)C(C)(C)c2c1ccc1c(S(=O)(=O)[O-])cc(S(=O)(=O)O)cc21 [Compound 10-3] |  |  | 803 |  | 777
